The numbers were not newly measured in paper PMC9456187, “The Ambivalence of Connexin43 Gap Peptides in Cardioprotection of the Isolated Heart against Ischemic Injury” (International Journal of Molecular Sciences, 2022), which cites them from elsewhere.

For the data set, the system named is ischemic preconditioning (IPC) cardioprotection. The note with it: cited from earlier work; for Inhibition of the triggering step of IPC (in words): ref [21],[40],[41],[42],[43]; for Effect on cardioprotection by preconditioning (in words): ref [21]. Here is the method:
IPC is a powerful and robust cardioprotective mechanism. In the current study, we wanted to examine if IPC in combination with Gap peptides would interfere with infarct size limitation. […] Peptides were added prior to and during three cycles of ischemic preconditioning pretreatment before prolonged global ischemia but not at the following reperfusion. When combining Gap26 and ischemic preconditioning, the protection agains ... || Through the years, multiple attempts have been made to use cardioprotection by IPC or pharmacological interventions that mimic IPC to reduce infarct size in the clinic. So far, this has been without success when carried through to large phase 3 clinical studies. Adaption to stress is a beneficial endogenous mechanism closely related to injury mechanisms.

As for `CC(=O)Oc1ccccc1C(=O)O` [acetylsalicylic acid (aspirin), acetylsalicylic acid], the “Inhibition of the triggering step of IPC (in words)” value (from here on “Inhibition”) was “inhibit the triggering step of IPC”. In the case of `COc1ccc2[nH]cc(CCNC(C)=O)c2c1` [melatonin], the “Inhibition” value is “inhibit the triggering step of IPC”. In the case of `CCCN(CCC)S(=O)(=O)c1ccc(C(=O)O)cc1` [probenecid], the “Effect on cardioprotection by preconditioning (in words)” value is listed as “could inhibit this effect”. For `O=c1[nH]c(=O)c2[nH]c(=O)[nH]c2[nH]1` [uric acid], the “Inhibition” value is given as “inhibit the triggering step of IPC” and the “Effect on cardioprotection by preconditioning (in words)” value is “blocks cardioprotection by preconditioning”.
